From patent publication US20250255889A1, “METHODS FOR TREATMENT SELECTION FOR CHRONIC LYMPHOCYTIC LEUKEMIA (CLL)” (The Broad Institute, Inc., priority 2022, published 2025)

Test system: primary CLL samples (CD19+ and CD5+ cells)
Experiment: High-throughput dynamic BH3 profiling (HT-DBP): drug-induced apoptotic priming (delta priming), cytochrome c release after BH3 peptide
Type: cell-based, human
Conditions: for drug-induced apoptotic priming: across CLL subtypes, 65 primary CLL samples, 20 hours drug
Method: By “delta priming” is meant the difference in priming of a cell for apoptosis measured in the presence of an agent for treating chronic lymphocytic leukemia relative to priming of the cell in the presence of an inert carrier. In embodiments, the inert carrier is DMSO.
Dynamic BH3 Profiling Dynamic BH3 profiling (DBP) is a drug screening assay that measures the relative priming of cells in a biological sample for cell death by apoptosis in the presence of a specific compound and/or a pro-apoptotic peptide. By “Dynamic BH3 profiling” is meant measuring drug-induced changes in mitochondrial apoptotic priming. Mitochondrial apoptotic priming is a measure of how close to the apoptotic threshold a cell is. A highly primed cell has relatively less anti-apoptotic binding site availability and is closer to the apoptotic threshold than a poorly primed cell, which has more anti-apoptotic availability to buffer an apoptotic assault and is further from the apoptotic threshold. BH3 peptides derived from the BH3 domain of pro-apoptotic BH3-only proteins provoke a response from viable mitochondria. Cytochrome c released from the mitochondria after a short incubation with BH3 peptide is used as a surrogate for priming. In general, the more sensitive a mitochondrion is to a BH3 peptide, the more primed it is. A drug treatment that enhances priming will cause mitochondria to undergo MOMP more easily when incubated with a fixed concentration of a promiscuously binding BH3 peptide, such as BIM BH3 peptide, compared to control-treated cells. See, for example, Potter, D. S. & Letai, A. To prime, or not to prime: that is the question. Cold Spring Harb. Symp. Quant. Biol. 81, 131-140 (2016); Montero, J. et al. Drug-induced death signaling strategy rapidly predicts cancer response to chemotherapy. Cell 160, 977-989 (2015); Daniels, V. W. et al. Metabolic perturbations sensitize triple-negative breast cancers to apoptosis induced by BH3 mimetics. Sci.
Dynamic BH3 profiling and peptides for use therein are described, for example, in Certo, et al., “Mitochondria primed by death signals determine cellular addiction to antiapoptotic BCL-2 family members,” Cancer Cell, 9:351-365 (2006); and in Foight, et al. “Designed BH3 Peptides with High Affinity and Specificity for Targeting Mcl-1 in Cells,” ACS Chemical Biology, 9:1962-1968 (2014), the disclosures of which are incorporated herein by reference in their entireties for all purposes. The DBP assay enables one to compare the response of a patient tumor sample to a specific drug relative to other drugs and relative to an inert control (e.g., DMSO).
To address the challenge of selecting a proper treatment for a chronic lymphocytic leukemia, experiments were undertaken to optimize high-throughput dynamic BH3 profiling (HT-DBP) for evaluation of the drug sensitivities of CLL samples (FIGS. 1, 13, 5A, 5B, 6A, 6B, and 7A-7C).

[1] = peptide BAD 0.3 uM, feature EC-i
[2] = peptide MS1 2.5 uM, feature CNOT3
[3] = peptide PUMA 1 uM, feature EC-i
[4] = peptide BAD 0.3 uM, feature BIRC3
[5] = peptide BAD 0.3 uM, feature ITIH2
[6] = peptide BAD 0.3 uM, feature i-CLL
[7] = peptide BAD 0.3 uM, feature loss_9p21.3
[8] = peptide BAD 0.3 uM, feature loss_17q11.2
[9] = peptide BIM 0.01 uM, feature BCOR
[10] = peptide BIM 0.01 uM, feature n-CLL
[11] = peptide MS1 2.5 uM, feature SAMHD1
[12] = peptide PUMA 1 uM, feature i-CLL
[13] = peptide BAD 0.3 uM, feature IGLV321_R110
[14] = peptide BAD 0.3 uM, feature RPS15
[15] = peptide BAD 0.3 uM, feature loss_6q
[16] = peptide MS1 2.5 uM, feature IGLV321_R110
[17] = peptide MS1 2.5 uM, feature RPS15
[18] = peptide MS1 2.5 uM, feature loss_6q
[19] = peptide MS1 2.5 uM, feature priortrt_Post
[20] = peptide BIM 0.01 uM, feature EC-m2
[21] = peptide BIM 0.01 uM, feature loss_17q23.1

Cc1c2c(nn1C)CSCc1cc(n(C)n1)CSc1cc(c3ccccc3c1)OCCCc1c(C(=O)O)n(C)c3c-2c(Cl)ccc13 [AZD5991]
direction (Feature EC-i): Sensitive | direction (Feature loss_3p13): Sensitive | direction [1]: Sensitive | direction (peptide BAD 0.3 uM, feature POT1): Sensitive | direction (peptide BAD 0.3 uM, feature loss_1q42.13): Sensitive | direction (peptide BAD 0.3 uM, feature loss_7p22.2): Sensitive | direction (peptide BAD 0.3 uM, feature loss_14q32.12): Sensitive | direction (peptide BAD 0.3 uM, feature loss_16p11.2): Sensitive | direction (peptide BIM 0.01 uM, feature ANK1): Sensitive | direction (peptide BIM 0.01 uM, feature loss_1p36.11): Sensitive | direction (peptide BIM 0.01 uM, feature loss_3p13): Sensitive | direction (peptide BIM 0.01 uM, feature loss_15q26.1): Sensitive | direction (peptide BIM 0.01 uM, feature loss_18q21.2): Sensitive | direction [2]: Sensitive | direction (peptide PUMA 1 uM, feature BIRC3): Sensitive | direction [3]: Sensitive | direction (peptide PUMA 1 uM, feature loss_1q42.13): Sensitive | direction (peptide PUMA 1 uM, feature loss_7p22.2): Sensitive | direction (peptide PUMA 1 uM, feature loss_9p21.3): Sensitive | direction (peptide PUMA 1 uM, feature loss_16p11.2): Sensitive | direction (peptide PUMA 1 uM, feature loss_17q11.2): Sensitive

c1cn2cc(-c3ccc4cn[nH]c4c3)nc(Nc3ccc(N4CCOCC4)cc3)c2n1 [Entospletinib]
direction (Feature tri_12): Sensitive | direction (peptide BAD 0.3 uM, feature loss_17p13.1): Sensitive | direction (peptide BAD 0.3 uM, feature loss_17q23.1): Sensitive | direction (peptide BAD 0.3 uM, feature loss_19p13.11): Sensitive | direction (peptide BIM 0.01 uM, feature tri_12): Sensitive | direction (peptide MS1 2.5 uM, feature loss_19p13.11): Sensitive | direction (peptide PUMA 1 uM, feature loss_19p13.11): Sensitive

Nc1cccc2c1CN(C1CCC(=O)NC1=O)C2=O (stereo not drawn) [Lenalidomide]
direction (peptide BAD 0.3 uM, feature loss_10q24.32): Resistant | direction (peptide BIM 0.01 uM, feature loss_15q15.1b): Resistant | direction (peptide BIM 0.01 uM, feature loss_20p11.22): Resistant | direction [2]: Sensitive

CN1CC[C@@H](c2c(O)cc(O)c3c(=O)cc(-c4ccc(C(F)(F)F)cc4Cl)oc23)[C@@H]1CO [Voruciclib]
direction [4]: Sensitive | dprim_pearson_corr [4]: 0.3672 | direction [5]: Sensitive | dprim_pearson_corr [5]: 0.3672 | direction [6]: Sensitive | dprim_pearson_corr [6]: 0.4321 | direction [7]: Sensitive | dprim_pearson_corr [7]: 0.3672 | direction [8]: Sensitive | dprim_pearson_corr [8]: 0.3672 | direction [9]: Resistant | dprim_pearson_corr [9]: −0.4056 | direction [10]: Resistant | dprim_pearson_corr [10]: −0.3372 | direction [11]: Resistant | dprim_pearson_corr [11]: −0.3337 | direction (peptide PUMA 1 uM, feature SF3B1): Resistant | direction [12]: Sensitive

C[C@@H](Oc1cc(-c2cnn(C3CCNCC3)c2)cnc1N)c1c(Cl)ccc(F)c1Cl [Crizotinib]
direction [1]: Resistant | direction (peptide BAD 0.3 uM, feature EC-u1): Sensitive | direction [13]: Resistant | direction (peptide BAD 0.3 uM, feature NOTCH1): Resistant | direction (peptide BAD 0.3 uM, feature RFX7): Sensitive | direction [14]: Resistant | direction (peptide BAD 0.3 uM, feature ZMYM3): Sensitive | direction [15]: Resistant | direction (peptide BAD 0.3 uM, feature loss_11q22.3): Sensitive | direction (peptide BAD 0.3 uM, feature n-CLL): Sensitive | direction (peptide BIM 0.01 uM, feature EC-i): Resistant | direction (peptide BIM 0.01 uM, feature IGLV321_R110): Resistant | direction (peptide BIM 0.01 uM, feature NOTCHI): Resistant | direction (peptide BIM 0.01 uM, feature RPS15): Resistant | direction (peptide BIM 0.01 uM, feature SF3B1): Sensitive | direction (peptide BIM 0.01 uM, feature loss_6q): Resistant | direction [16]: Resistant | direction (peptide MS1 2.5 uM, feature NOTCH1): Resistant | direction (peptide MS1 2.5 uM, feature RFX7): Resistant | direction [17]: Resistant | direction (peptide MS1 2.5 uM, feature ZMYM3): Resistant | direction [18]: Resistant | direction [19]: Resistant | direction [3]: Resistant | direction (peptide PUMA 1 uM, feature IGLV321_R110): Resistant | direction (peptide PUMA 1 uM, feature NOTCH1): Resistant | direction (peptide PUMA 1 uM, feature RPS15): Resistant | direction (peptide PUMA 1 uM, feature loss_6q): Resistant

NC1(c2ccc(-c3nc4ccn5c(=O)[nH]nc5c4cc3-c3ccccc3)cc2)CCC1 [MK-2206]
direction (Feature priortrt_Post): Resistant | direction [1]: Resistant | direction [13]: Resistant | direction [14]: Resistant | direction [15]: Resistant | direction (peptide BAD 0.3 uM, feature priortrt_Post): Resistant | direction (peptide BIM 0.01 uM, feature BIRC3): Sensitive | direction (peptide BIM 0.01 uM, feature ITIH2): Sensitive | direction (peptide BIM 0.01 uM, feature loss_9p21.3): Sensitive | direction (peptide BIM 0.01 uM, feature loss_17q11.2): Sensitive | direction (peptide MS1 2.5 uM, feature EC-i): Resistant | direction [16]: Resistant | direction [17]: Resistant | direction [18]: Resistant | direction (peptide PUMA 1 uM, feature priortrt_Post): Resistant

CC(C)C[C@H](NC(=O)[C@H](CCc1ccccc1)NC(=O)CN1CCOCC1)C(=O)N[C@@H](Cc1ccccc1)C(=O)N[C@@H](CC(C)C)C(=O)[C@@]1(C)CO1 [Carfilzomib]
direction [20]: Sensitive | direction [21]: Sensitive | direction (peptide PUMA 1 uM, feature MYD88): Sensitive | direction (peptide PUMA 1 uM, feature gain_7q22.1): Sensitive | direction [12]: Sensitive | direction (peptide PUMA 1 uM, feature loss_3p21.31): Sensitive | direction (peptide PUMA 1 uM, feature loss_14q32.12): Sensitive

CN(C)Cc1c(C(=O)NCCOc2ccc(C(=O)NO)cc2)oc2ccccc12 [Abexinostat]
drug-induced apoptotic priming: high priming | efficacy by DBP response (cases where patients would be likely resistant to Nutlin 3, MK-2206 and Zanubrutinib): effective | direction (peptide BAD 0.3 uM, feature EC-m2): Sensitive | direction (peptide BIM 0.01 uM, feature CNOT3): Sensitive | direction [20]: Sensitive | direction [21]: Sensitive | direction (peptide BIM 0.01 uM, feature priortrt_Post): Sensitive | direction (peptide MS1 2.5 uM, feature FBXW7): Sensitive | direction (peptide MS1 2.5 uM, feature ITIH2): Sensitive | direction [19]: Sensitive | direction (peptide PUMA 1 uM, feature EC-m2): Sensitive | direction (peptide PUMA 1 uM, feature loss_6q21): Sensitive | direction (peptide PUMA 1 uM, feature loss_17q23.1): Sensitive

Cc1cc(Nc2cc(CN3CCOCC3)c3nc(C)c(Cc4ccc(Cl)cc4F)n3n2)n[nH]1 [Gandotinib]
drug-induced apoptotic priming by expression cluster (EC-ul (U-CLL)): most sensitive | direction (Feature EC-i): Resistant | drug-induced apoptotic priming: high priming | direction [1]: Resistant | direction (peptide BAD 0.3 uM, feature GNB1): Sensitive | direction [3]: Resistant | direction (peptide PUMA 1 uM, feature GNB1): Sensitive
